Tests used:
[1] = molecular target: toxic alpha-synuclein oligomers (Homo sapiens, UniProt P37840); assay: Neuronal cell toxicity assay (MTT), alpha-synuclein oligomers; assay type: cell-based; settings: 10 μM compound; primary rat neurons; 100% = cells without alpha-synuclein oligomers, 0% = oligomers and DMSO
Protocol: (§1) Primary rat cortical and striatal neurons were prepared from foetuses' brain as previously described (Garcia et al., Diabetes, Obesity & Metabolism 2010, 12, 403-413; Roby et al., Food chemistry 2015, 171, 397-404; Colin et al., Biochimie 2016, 130, 178-187). Briefly, the embryos were extracted, brains were collected and dissected using a binocular magnifier. Embryonic cortical/striatal tissues were dissociated by a combination of enzymatic digestion and mechanical dissociation. The relative number of live cells in cell suspension was evaluated for each cortical and striatal neurons using Thoma cell counting chamber and Axio Scope A1 microscope (Carl Zeiss, Oberkochen, Germany). Dissociated neurons were plated (80,000 cells/well) in 48-well plates pre-coated with 15 μg/mL Poly-ornithine (Sigma), 1 μg/ml Laminin (Sigma). Cells were cultured in Neurobasal medium (Invitrogen, Paris, France) serum free of and supplemented with 2% (v/v) of B-27 Supplement (Invitrogen). […]
(§2) To induce neuronal toxicity, neurotoxin (oligomeric forms of Aβ, Tau and alpha-synuclein at 0.1-5 μM) were used. […] Cell viability was evaluated by a 3-(4,5-dimethylthiazol-2-yl)-2,5-diphenyl-2H-tetrazolium bromide (MTT) assay at 24-72 h post neurotoxin challenge. […] After complete solubilization of formazan, absorbance was recorded at 500 nm with a spectrophotometer (SpectraMax® i3x, Molecular Devices, San José, USA).

[2] = molecular target: TDP-43 peptide (amino acids 307-319) (Homo sapiens, UniProt Q13148); assay: TDP-43 thioflavin T assay; assay type: biochemical; settings: ThT RFU at 15 hours; 100% = TDP-43 + DMSO
Protocol: The effect of compounds on fibril formation by TDP-43 peptide (amino acids 307-319) was screened using a thioflavin T (ThT) fluorescence assay in a 96-well plate format. The monomeric form of TDP-43 307-319 was stored in HFIP at −20° C. in 32 μL vials and then thawed on ice. After thawing a stock aliquot on ice, 16 μL of HFIP and 432 μL 100 mM ammonium acetate was added. This mix was pipetted three times. Three such prepared aliquots were combined to create a master mix. 400 μM of ThT stock was prepared by dissolving 31.8 mg ThT in 10 mL Milli-Q water to make […] stock. The 10 mM ThT stock was then diluted to 400 μM with Milli-Q water and stored at −20° C. until use. 20 μL aliquots of compounds were used as initial starting material. 98 μL of master mix was then added to each well of 96-well plate, and then 2 μL of compounds was added to each well testing a compound. The plate was spun at 4700×rpm to remove bubbles at 4° C., and then the plate measurements were collected. ThT fluorescence was measured through the bottom of the plate using 440- and 480-nm excitation and emission filters for 15 hours at 0.5-hour intervals. Each well was scanned at 5 points with a 1.25 mm distance between points. The relative fluorescence unit (RFU) at 15 hours was used to rank the percent of aggregation for all tested compounds.

[3] = molecular target: T1, amyloid beta peptide 42 (Aβ42) protein aggregates (Homo sapiens, UniProt P05067); assay: Atomic force microscopy (AFM) of amyloid beta peptide protein aggregation; assay type: biochemical; settings: pre-incubated 10 μM Aβ42, 1:1 compound:Aβ42 ratio, 60 minutes after compound addition
T1 construct: amyloid beta peptide 42 (Aβ42) protein aggregates
Protocol: Atomic force microscopy (AFM) was utilized to study the effect of compound 1 on the formation of larger scale amyloid beta peptide 42 (Aβ42) protein aggregates and to determine the effect on pre-formed aggregates and fibrils. Amyloid beta peptide 42 protein aggregates are a major component of the amyloid plaques found in the brains of people with Alzheimer's disease. A 50 μL aliquot of 10 μM Aβ42 solution in 10 mM ammonium acetate was removed and drop-cast onto a mica disc, dried at ambient conditions in a desiccator, and imaged. It took approximately 5 min to prepare the peptide and for the disc to dry, making it the earliest time Aβ42 aggregation can be observed. After 5 min incubation, large globular aggregates formed but few fibrils were observed (FIG. 1A). After 60 min, there was a clear trend toward higher fibril content and larger oligomers. Thus, FIG. 1A represents a control, showing Aβ42 aggregation without the addition of any compound causing Aβ42 aggregation disruption.
Compound 1 was added to the same solution of pre-incubated Aβ42 in a 1:1 compound:Aβ42 ratio. The AFM image shown in FIG. 1B was taken at 60 minutes after compound 1 addition.

[4] = molecular target: T2, TDP-43 cytosolic aggregates (TDP-43-tGFP-U2OS cell line) (Homo sapiens, UniProt Q13148); assay: TDP-43 cytoplasmic aggregation assay; assay type: cell-based; settings: 10 μM compound; TDP-43-tGFP-U2OS cells, sodium arsenite; lower = more potent
T2 construct: expressed in transfected cells; host or cells: U2OS (recombinant, IPTG-inducible TDP-43 expression)
Protocol: Recombinant TDP-43-tGFP-U2OS cell line was thawed (2×10^6 cells per T75) and was maintained in DMEM-F12 supplemented with 10% FBS at 37° C. in a humidified 5% CO2 atmosphere. Cells were plated in 96-well plates with a density of 10,000 cells (+/−2000 cells) per well. Cells were incubated with the test compounds and isopropyl β-D-1-thiogalactopyranoside (IPTG) 1 mM to induce TDP43 expression for 24 hours. The assays were carried out in triplicate. Cells were treated with 125-250 μM of sodium arsenite for 120 min and TDP-43 punctae formation was quantified in both cell cytoplasm and cell nucleus, in living cells. The nuclei were stained using Hoechst (0.5 μg/ml) and the fluorescence was measured using a Cell Insight High-Content Bioimager from Thermo Fisher. To detect the Hoechst, the filters used were 380/10 and 460/10 nm for excitation and emission, respectively, and to detect the TDP-43 punctae, the filters were 488/20 and 520/20 nm, respectively. The images were obtained with an objective of 20×. Cell quantification was performed delimitating the region of interest of the nuclei and after quantification the average of each triplicate was performed. For granule quantification the spot detector application from Cell Software delimitated 2 regions of interest, the nuclei and cytosol. This software quantified the average number of granules per nuclei and the average number of granules per cytosol in each well.

toxic tau oligomers = assay: Neuronal cell toxicity assay (MTT), tau oligomers; assay type: cell-based; settings: primary rat neurons, 100% = cells without tau oligomers, 0% = tau oligomers and DMSO
Protocol: as §1, §2

T2 sequence (Q13148 whole entry): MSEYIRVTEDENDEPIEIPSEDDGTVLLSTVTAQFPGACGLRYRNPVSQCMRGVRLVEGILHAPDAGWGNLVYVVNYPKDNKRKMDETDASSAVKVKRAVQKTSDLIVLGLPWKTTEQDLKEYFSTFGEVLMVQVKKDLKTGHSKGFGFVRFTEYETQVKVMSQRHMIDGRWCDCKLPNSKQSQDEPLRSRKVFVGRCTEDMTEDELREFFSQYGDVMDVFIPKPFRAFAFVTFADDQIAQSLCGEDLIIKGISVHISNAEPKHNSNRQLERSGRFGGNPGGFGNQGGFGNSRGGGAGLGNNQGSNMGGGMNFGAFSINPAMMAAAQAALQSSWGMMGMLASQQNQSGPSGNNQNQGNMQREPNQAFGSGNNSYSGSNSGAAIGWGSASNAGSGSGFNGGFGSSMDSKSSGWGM
T1 sequence (P05067 672-713 limits assumed): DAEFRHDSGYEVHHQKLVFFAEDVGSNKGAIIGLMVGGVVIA

| % aggregation TDP-43 ThT at 50 μM TDP-43 [2] [%] | Aβ42 protein aggregation (AFM image, FIG. 1B) [3] | TDP-43 % cytosolic aggregates at 10 μM [4] [%] | SMILES | % rescue at 10 μM comopund from toxic alpha-synuclein oligomers [1] [%] | % rescue at 10 μM compound from toxic tau oligomers (toxic tau oligomers) [%] |
| --- | --- | --- | --- | --- | --- |
| 77.4 | dramatic reduction | 34.5 | CC(=O)Nc1ccc2c(c1)CCN(CCc1cccc(Cl)c1)C2 [Compound 1] | 24 |  |
| 80.7 |  | 10.2 | CC(=O)Nc1ccc2c(c1)CCN(CCc1ccc(F)c(Cl)c1)C2 [Compound 2] |  | 33.7 |
